Laboratory results: US11224565B2, “N-acyldipeptide derivatives and their uses” (NeoStrata Company, Inc., priority 2011, dated 2022)
Peptide text beside a SMILES is read from it.

How the values were obtained:
Type in all cases: in vivo, human
[1] = test system: arthritis of both knees with edema and pain; assay: Sublingual administration in arthritis of knees; details: 1 mg sublingually, kept under the tongue 15 minutes; after a few hours
Method: A subject had severe arthritis of both knees with edema and pain for many years. The conventional therapy had provided only temporary relief of knee pain and edema. The subject took N—Ac-L-Pro-Gly-NH2 (1 mg) sublingually and kept the dipeptide under the tongue for 15 minutes before swallowing.

[2] = test system: Aging related changes of skin, nail and hair; assay: Summary of test results in volunteer subjects: aging related changes; details: efficacy grade
Nerve disorders = assay: Summary of test results in volunteer subjects: nerve disorders; details: efficacy grade
Method in brief: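 Volunteers applied N-acyldipeptide derivatives dissolved in water/ethanol/propylene glycol (40:40:20), ethanol/propylene glycol (80:20), or water/propylene glycol (80:20) mixed into cream, once or twice daily for several weeks or until lesions cleared. Vehicle control applied twice daily; application also over arthritic joints or painful muscles.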

[3] = test system: Deranged immune disorders and inflammation; assay: Summary of test results in volunteer subjects: deranged immune disorders and inflammation; details: efficacy grade
Method in brief: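 Volunteers applied N-acyldipeptide derivatives topically once or twice daily for several weeks or until lesions cleared. Compounds were dissolved in water/ethanol/propylene glycol (40:40:20) or ethanol/propylene glycol (80:20), or in water/propylene glycol (80:20) mixed into an oil-in-water cream. Vehicle control applied twice daily.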

Disturbed keratinization = assay: Summary of test results in volunteer subjects: disturbed keratinization; details: efficacy grade
Method in brief: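 Volunteers applied N-acyldipeptide derivatives dissolved in water/ethanol/propylene glycol 40:40:20, ethanol/propylene glycol 80:20, or water/propylene glycol 80:20 mixed into oil-in-water cream, on involved skin once or twice daily for several weeks or until clearing. Vehicle applied twice daily as control; disturbed keratinization lesions assessed clinically.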

forearm skin = assay: Skin thickness of forearm by micrometer calipers after topical application; details: for increase in skin thickness of treated left forearm: 1% (w/v) in WEP442 topically twice daily, vehicle forearm no change
Method: In one of the studies related to skin changes associated with aging, skin thickness was measured by micrometer calipers as follows. The skin was grasped with a 2×6 cm metal hinge; the internal faces of which were coated with emery cloth to prevent slippage, and manually squeezed to threshold subject discomfort. Combined thickness of two whole-skin layers including thickness of the two hinge leaves was measured with micrometer calipers. Thickness of the two hinge leaves was subtracted to determine the actual thickness of two whole-skin layers. Triplicate measurements on treated sites were done and an average number was used for calculation of the skin thickness. In other studies, test sites of skin 17 mm in diameter were used, the circular sites were marked with permanent ink. Intervening control sites were also 17 mm in diameter. Thickness of skin of all sites was measured directly by means of an electronic digital caliper. In this instance the jaws of the caliper were opened to 17 mm, applied with pressure to the skin sites and then closed to firm tightness. Thickness of skin was then read off the screen of the calipers. Measurements of all sites were made in triplicates.

[4] = test system: inflammation, dermatitis, or eczema lesions; assay: Topical application to chronic inflammation, dermatitis, eczema or allergic skin lesions, clinical evaluation; details: 0.4% (w/v) in WEP442 pH 3.7 twice daily, inflammatory dermatitis on both arms
Description: In another embodiment, the volunteer subject topically applied the test compositions containing N-acyldipeptide derivatives of the present invention on involved skin or lesions once or twice daily for several weeks or until the involved lesions completely cleared and clinically changed to normal skin. As a control study, the subject also topically applied a vehicle control composition on the involved skin or lesions twice daily for the same period.

[5] = Systemic administration under the tongue, tolerability; details: 1 mg powder under the tongue, twice daily for three days, person
Method: The subject took 1 mg N—Ac-L-Tyr-L-Tyr-OH powder under the tongue until it was dissolved completely. The same dose was taken twice daily for the next three days. […] Such systemic administration of the bioactive dipeptide derivative of the present invention is believed to have the potential of treating diseases, symptoms or syndromes associated with immune, tumors, cancers, nervous, vascular, musculoskeletal, cutaneous system, or other tissues and systems.

With `CC(=O)N1CCC[C@H]1C(=O)NCC(N)=O` [N-Ac-L-Pro-Gly-NH2] (Ac-Pro-Gly-NH2) the “edema and pain of arthritic knees” value [1] was “diminished substantially”, the AG [2] was 2+ (2+: 50% Efficacy) and the ND (Nerve disorders) was 4+ (4+: 95-100% Efficacy). For the same compound, the DI [3] was 3+ (3+: 75% Efficacy) and the DK (Disturbed keratinization) was 2+ (2+: 50% Efficacy).
In the case of `CC(=O)N[C@@H](Cc1ccc(O)cc1)C(=O)N[C@@H](Cc1ccc(O)cc1)C(=O)O` [N-Ac-L-Tyr-L-Tyr-OH] (Ac-Tyr-Tyr-OH), the “increase in skin thickness of treated left forearm” value (shortened to “increase in skin thickness”) (forearm skin; after 2 weeks) is reported as 16%, the “increase in skin thickness” value (forearm skin; after 4 weeks) is reported as 17% and the “increase in skin thickness” value (forearm skin; after one week) is reported as 16%. The “appearance of treated left forearm at end of treatment” value (forearm skin; 1-3% (w/v) in WEP442 topically twice daily for 1-6 weeks as in the example, vehicle forearm still loose, thin and wrinkled) was “more firm, smooth, plump, and less wrinkled when lifted”, the AG [2] was 4+ (4+: 95-100% Efficacy) and the ND (Nerve disorders) was 4+ (4+: 95-100% Efficacy). For the same compound, the DI [3] was 3+ (3+: 75% Efficacy), the DK (Disturbed keratinization) was 3+ (3+: 75% Efficacy) and the “itch after topical application” value [4] was “stopped within a few minutes”. The “improvement as judged by clinical evaluation” value ([4]; end of one week) was 95% and the “irritation or side reactions” value [5] was “did not provoke any irritation or side reactions”.
